pIC50: −log10 of the molar value.

The values below come from patent US10550105B2 (Ribon Therapeutics Inc., priority 2018, dated 2020).

In the test the target is PARP7 (Homo sapiens (Human), UniProt Q7Z3E1). The test is described as follows: Enzymatic assay for inhibition of PARP7: TR-FRET displacement of biotinylated Probe A from the TIPARP active site. Particulars: Table A-1. Type of test: binding. In a few lines:
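Titrated compounds compete with the biotinylated probe; after an additional 30 min incubation at 25° C, time-delayed fluorescence (90 μs) is measured. Inhibition curves use a Hill coefficient that normally floats but may be held at 1.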

PARP7, sequence (Q7Z3E1 whole entry): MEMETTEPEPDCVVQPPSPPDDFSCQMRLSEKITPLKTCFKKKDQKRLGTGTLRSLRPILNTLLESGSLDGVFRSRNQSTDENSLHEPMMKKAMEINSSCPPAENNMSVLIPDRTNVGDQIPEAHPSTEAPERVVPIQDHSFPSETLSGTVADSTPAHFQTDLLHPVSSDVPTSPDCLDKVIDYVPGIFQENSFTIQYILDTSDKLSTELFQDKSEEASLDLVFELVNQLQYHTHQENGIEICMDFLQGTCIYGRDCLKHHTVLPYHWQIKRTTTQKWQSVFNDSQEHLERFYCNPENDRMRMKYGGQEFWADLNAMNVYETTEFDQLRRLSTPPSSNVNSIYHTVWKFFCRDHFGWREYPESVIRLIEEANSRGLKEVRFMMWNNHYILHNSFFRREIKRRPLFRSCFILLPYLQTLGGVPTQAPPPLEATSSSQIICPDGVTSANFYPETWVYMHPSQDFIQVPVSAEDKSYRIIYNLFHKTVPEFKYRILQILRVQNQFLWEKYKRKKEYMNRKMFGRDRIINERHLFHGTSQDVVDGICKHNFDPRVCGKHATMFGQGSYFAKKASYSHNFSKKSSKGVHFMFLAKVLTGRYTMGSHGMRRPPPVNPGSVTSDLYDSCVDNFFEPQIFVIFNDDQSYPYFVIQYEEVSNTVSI

Turning to `COc1cc(F)cc2c1CN(c1cn[nH]c(=O)c1C(F)(F)F)C2` [Example 274, 5-(6-Fluoro-4-methoxyisoindolin-2-yl)-4-(trifluoromethyl)pyridazin-3(2H)-one], the pIC50 was above 7.00. With `NCC1c2ccccc2CN1c1cn[nH]c(=O)c1C(F)(F)F` (centres unmarked) [Example 275, 5-(1-(Aminomethyl)isoindolin-2-yl)-4-(trifluoromethyl)pyridazin-3(2H)-one] the figure was at most 6.00; with `CC(=O)N(C)CC1c2ccccc2CN1c1cn[nH]c(=O)c1C(F)(F)F` (centres unmarked) [Example 276, N-Methyl-N-((2-(6-oxo-5-(trifluoromethyl)-1,6-dihydropyridazin-4-yl)isoindolin-1-yl)methyl)acetamide], at most 6.00.

`CN(C)C(=O)c1cccc2c1CN(c1cn[nH]c(=O)c1C(F)(F)F)C2` [Example 277, N,N-Dimethyl-2-(6-oxo-5-(trifluoromethyl)-1,6-dihydropyridazin-4-yl)isoindoline-4-carboxamide] showed a pIC50 of 6.00 to 7.00. The figure for `CC(O)c1cccc2c1CN(c1cn[nH]c(=O)c1C(F)(F)F)C2` (centres unmarked) [Example 278, 5-(4-(1-Hydroxyethyl)isoindolin-2-yl)-4-(trifluoromethyl)pyridazin-3(2H)-one] is 6.00 to 7.00; for `O=c1[nH]ncc(N2Cc3cc(F)c(OC4CCNCC4)cc3C2)c1C(F)(F)F` [Example 279, 5-(5-Fluoro-6-(piperidin-4-yloxy)isoindolin-2-yl)-4-(trifluoromethyl)pyridazin-3(2H)-one] it is above 7.00; for `O=c1[nH]ncc(N2Cc3ccncc3C2)c1C(F)(F)F` [Example 280, 5-(1,3-Dihydro-2H-pyrrolo[3,4-c]pyridin-2-yl)-4-(trifluoromethyl)pyridazin-3(2H)-one] it is 6.00 to 7.00. With `CN(C)C1CCN(c2cccc3c2CN(c2cn[nH]c(=O)c2C(F)(F)F)C3)CC1` [Example 281, 5-(4-(4-(Dimethylamino)piperidin-1-yl)isoindolin-2-yl)-4-(trifluoromethyl)pyridazin-3(2H)-one] the figure was 6.00 to 7.00; with `CN(c1cccc2c1CN(c1cn[nH]c(=O)c1C(F)(F)F)C2)C1CCOCC1` [Example 282, 5-(4-(Methyl(tetrahydro-2H-pyran-4-yl)amino)isoindolin-2-yl)-4-(trifluoromethyl)pyridazin-3(2H)-one], 6.00 to 7.00. The figure for `O=c1[nH]ncc(N2Cc3c(F)ccc(OCCO)c3C2)c1C(F)(F)F` [Example 283, 5-(4-Fluoro-7-(2-hydroxyethoxy)isoindolin-2-yl)-4-(trifluoromethyl)pyridazin-3(2H)-one] is 6.00 to 7.00; for `O=c1[nH]ncc(N2Cc3cccc(N4CCCC4)c3C2)c1C(F)(F)F` [Example 284, 5-(4-(Pyrrolidin-1-yl)isoindolin-2-yl)-4-(trifluoromethyl)pyridazin-3(2H)-one] it is above 7.00; for `CN(C)C1CCN(c2cccc3c2CN(c2cn[nH]c(=O)c2C(F)(F)F)C3)C1` (centres unmarked) [Example 285, 5-(4-(3-(Dimethylamino)pyrrolidin-1-yl)isoindolin-2-yl)-4-(trifluoromethyl)pyridazin-3(2H)-one] it is above 7.00. With `O=c1[nH]ncc(N2Cc3c(F)ccc(OCCN4CCOCC4)c3C2)c1C(F)(F)F` [Example 286, 5-(4-Fluoro-7-(2-morpholinoethoxy)isoindolin-2-yl)-4-(trifluoromethyl)pyridazin-3(2H)-one], the negative logarithm of the IC50 (pIC50) is above 7.00. The figure for `CC(C)c1c(N2Cc3ccc(OC4CCCNC4)cc3C2)cn[nH]c1=O` (centres unmarked) [Example 287, 4-Isopropyl-5-(5-(piperidin-3-yloxy)isoindolin-2-yl)pyridazin-3(2H)-one] is at most 6.00; for `O=c1[nH]ncc(N2Cc3ccc(O[C@@H]4CCCNC4)cc3C2)c1C(F)(F)F` [Example 288, (R)-5-(5-(Piperidin-3-yloxy)isoindolin-2-yl)-4-(trifluoromethyl)pyridazin-3(2H)-one] it is above 7.00. In turn, `O=c1[nH]ncc(N2Cc3ccc(O[C@H]4CCCNC4)cc3C2)c1C(F)(F)F` [Example 289, (S)-5-(5-(Piperidin-3-yloxy)isoindolin-2-yl)-4-(trifluoromethyl)pyridazin-3(2H)-one] had a pIC50 above 7.00. With `O=c1[nH]ncc(N2Cc3cccc(NC4CCOCC4)c3C2)c1C(F)(F)F` [Example 290, 5-(4-((Tetrahydro-2H-pyran-4-yl)amino)isoindolin-2-yl)-4-(trifluoromethyl)pyridazin-3(2H)-one] the figure was 6.00 to 7.00; with `O=c1[nH]ncc(N2Cc3c(F)ccc(OC4CCNCC4)c3C2)c1C(F)(F)F` [Example 291, 5-(4-Fluoro-7-(piperidin-4-yloxy)isoindolin-2-yl)-4-(trifluoromethyl)pyridazin-3(2H)-one], 6.00 to 7.00; with `CC(C)c1c(N2Cc3ccc(O[C@@H]4CCCNC4)cc3C2)cn[nH]c1=O` [Example 292, (R)-4-Isopropyl-5-(5-(piperidin-3-yloxy)isoindolin-2-yl)pyridazin-3(2H)-one], at most 6.00.

The compound `CC(C)c1c(N2Cc3ccc(O[C@H]4CCCNC4)cc3C2)cn[nH]c1=O` [Example 293, (S)-4-Isopropyl-5-(5-(piperidin-3-yloxy)isoindolin-2-yl)pyridazin-3(2H)-one] gave a negative-log IC50 (pIC50) of at most 6.00. With `CC(=O)N1CCN(c2cccc3c2CN(c2cn[nH]c(=O)c2C(F)(F)F)C3)CC1` [Example 294, 5-(4-(4-Acetylpiperazin-1-yl)isoindolin-2-yl)-4-(trifluoromethyl)pyridazin-3(2H)-one] the figure was above 7.00; with `O=c1[nH]ncc(N2Cc3cccc(N4CCNCC4)c3C2)c1C(F)(F)F` [Example 295, 5-(4-(Piperazin-1-yl)isoindolin-2-yl)-4-(trifluoromethyl)pyridazin-3(2H)-one], 6.00 to 7.00. The figure for `NC1CCN(c2cccc3c2CN(c2cn[nH]c(=O)c2C(F)(F)F)C3)CC1` [Example 296, 5-(4-(4-Aminopiperidin-1-yl)isoindolin-2-yl)-4-(trifluoromethyl)pyridazin-3(2H)-one] is 6.00 to 7.00; for `O=c1[nH]ncc(N2Cc3cccc(NC4CCNCC4)c3C2)c1C(F)(F)F` [Example 297, 5-(4-(Piperidin-4-ylamino)isoindolin-2-yl)-4-(trifluoromethyl)pyridazin-3(2H)-one] it is 6.00 to 7.00; for `CC1(C)CC(Nc2cccc3c2CN(c2cn[nH]c(=O)c2C(F)(F)F)C3)CC(C)(C)N1` [Example 300, 5-(4-((2,2,6,6-Tetramethylpiperidin-4-yl)amino)isoindolin-2-yl)-4-(trifluoromethyl)pyridazin-3(2H)-one] it is 6.00 to 7.00. With `NC1CCCN(c2cccc3c2CN(c2cn[nH]c(=O)c2C(F)(F)F)C3)C1` (centres unmarked) [Example 301, 5-(4-(3-Aminopiperidin-1-yl)isoindolin-2-yl)-4-(trifluoromethyl)pyridazin-3(2H)-one] the figure was 6.00 to 7.00; with `CN(c1cccc2c1CN(c1cn[nH]c(=O)c1C(F)(F)F)C2)C1CCNCC1` [Example 302, 5-(4-(Methyl(piperidin-4-yl)amino)isoindolin-2-yl)-4-(trifluoromethyl)pyridazin-3(2H)-one], 6.00 to 7.00. The compound `COc1ccc2c(n1)CN(c1cn[nH]c(=O)c1C(F)(F)F)C2` [Example 303, 5-(2-Methoxy-5,7-dihydro-6H-pyrrolo[3,4-b]pyridin-6-yl)-4-(trifluoromethyl)pyridazin-3(2H)-one] gave a pIC50 above 7.00.

As to `O=c1[nH]ncc(N2Cc3ccc(Cl)nc3C2)c1C(F)(F)F` [Example 304, 5-(2-Chloro-5,7-dihydro-6H-pyrrolo[3,4-b]pyridin-6-yl)-4-(trifluoromethyl)pyridazin-3(2H)-one], the pIC50 was above 7.00. The figure for `O=c1[nH]ncc(N2Cc3cccc(N4CCC(O)C4)c3C2)c1C(F)(F)F` (centres unmarked) [Example 305, 5-(4-(3-Hydroxypyrrolidin-1-yl)isoindolin-2-yl)-4-(trifluoromethyl)pyridazin-3(2H)-one 2,2,2-trifluoroacetic acid] is above 7.00; for `NC1CCN(c2cccc3c2CN(c2cn[nH]c(=O)c2C(F)(F)F)C3)C1` (centres unmarked) [Example 306, 5-(4-(3-Aminopyrrolidin-1-yl)isoindolin-2-yl)-4-(trifluoromethyl)pyridazin-3(2H)-one] it is above 7.00; for `O=c1[nH]ncc(N2Cc3cccc(NC4CCCOC4)c3C2)c1C(F)(F)F` (centres unmarked) [Example 307, 5-(4-((Tetrahydro-2H-pyran-3-yl)amino)isoindolin-2-yl)-4-(trifluoromethyl)pyridazin-3(2H)-one] it is 6.00 to 7.00. The figure for `COc1cccc2c1CN(c1cn[nH]c(=O)c1C(F)(F)F)C2C` (centres unmarked) [Example 308, 5-(4-Methoxy-1-methylisoindolin-2-yl)-4-(trifluoromethyl)pyridazin-3(2H)-one] is 6.00 to 7.00.

For `COc1cccc2c1C(C)N(c1cn[nH]c(=O)c1C(F)(F)F)C2` (centres unmarked) [Example 309, 5-(7-Methoxy-1-methylisoindolin-2-yl)-4-(trifluoromethyl)pyridazin-3(2H)-one], the pIC50 was 6.00 to 7.00. The figure for `CCC1c2ccccc2CN1c1cn[nH]c(=O)c1C(F)(F)F` (centres unmarked) [Example 310, 5-(1-Ethylisoindolin-2-yl)-4-(trifluoromethyl)pyridazin-3(2H)-one] is at most 6.00; for `COCCOc1ccc2c(n1)CN(c1cn[nH]c(=O)c1C(F)(F)F)C2` [Example 311, 5-(2-(2-Methoxyethoxy)-5,7-dihydro-6H-pyrrolo[3,4-b]pyridin-6-yl)-4-(trifluoromethyl)pyridazin-3(2H)-one] it is 6.00 to 7.00.

For `O=c1[nH]ncc(N2Cc3ccc(OCCO)nc3C2)c1C(F)(F)F` [Example 312, 5-(2-(2-Hydroxyethoxy)-5,7-dihydro-6H-pyrrolo[3,4-b]pyridin-6-yl)-4-(trifluoromethyl)pyridazin-3(2H)-one], the pIC50 was 6.00 to 7.00. For the compound `O=c1[nH]ncc(N2Cc3ccc(OCc4cccnc4)nc3C2)c1C(F)(F)F` [Example 313, 5-(2-(Pyridin-3-ylmethoxy)-5,7-dihydro-6H-pyrrolo[3,4-b]pyridin-6-yl)-4-(trifluoromethyl)pyridazin-3(2H)-one], the pIC50 was above 7.00.
